Values after ≈ are worked out from the molar mass of the structure shown. Like-named read-outs stand apart in the source and are kept apart here.
How the values were obtained:
[1] = system: P. acnes PRP-010; assay: MBC assay; type: cell-based, Propionibacterium acnes; conditions: Cutibacterium acnes, PRP010; P. acnes PRP-010 (resistance MLSK)
Description: (§1) Other propionibacterial strains were also tested, as described in Example 8 below. These included certain antibiotic resistant propionibacteria, such as the two P. acnes strains PRP-010 and PRP-053 which are resistant respectively to macrolides-lincosamides-streptogramins-ketolides (MLSK) and to macrolides-lincosamides-streptogramins (MLS) and tetracycline—in other words, PRP-010 is resistant to erythromycin and clindamycin, and […] to erythromycin, clindamycin and tetracycline.
(§2) The Propionibacterium spp organisms were cultured and maintained on Wilkins-Chalgren Anaerobe Medium (agar and broth) at pH 6.0; cultures were incubated anaerobically at 37° C. for 72 hours.
(§3) This assay, normally carried out after an MIC assay, determines the minimum concentration of a compound that is lethal to the micro-organism being tested.
(§4) These samples were then individually sub-cultured on non-selective agar medium, under the incubation conditions described above. Following incubation they were examined visually for bacterial growth.

[2] = system: P. acnes PRP-053; assay: MBC assay; type: cell-based, Propionibacterium acnes; conditions: Cutibacterium acnes, PRP053; P. acnes PRP-053 (resistance Tet/MLS)
Description: as §1, §2, §3, §4

[3] = system: S. aureus ATCC 29213; assay: MIC assay; type: cell-based, Staphylococcus aureus
Description: 1. Staphylococcus aureus—the principal staphylococcal test micro-organism used in these studies was Staphylococcus aureus ATCC 29213. This strain is the one recommended for QC/QA purposes in Minimum Inhibitory Concentration (MIC) assays by the US Clinical and Laboratory Standards Institute (formerly the NCCLS), an FDA-recognised body. […] The staphylococci and enterococci were cultured and maintained on Mueller-Hinton Medium (agar and broth) at pH 7.2; they were incubated aerobically at 37° C. for 24 hours. This is a standard international method for quantitatively assessing the antimicrobial activity of a compound in a liquid medium. The method used a 96-well microtitre plate, capable of holding about 200 μl of liquid per well. […] The culture media were as described above for the relevant test organisms. The wells were inoculated with a liquid suspension of freshly grown micro-organism and incubated under the conditions described above. After incubation, the microtitre plate was examined visually (with the aid of a light box) for cell pellets in and/or opaque wells, which would indicate microbial growth. The MIC value was recorded as the lowest concentration of test compound required to inhibit microbial growth, ie, the lowest concentration for which the liquid in the well remained clear. The assays were conducted in duplicate and included both negative (culture medium only) and positive (culture medium, diluting solvent and inoculum) controls.

[4] = system: P. acnes NCTC 737; assay: MBC assay; type: cell-based, Propionibacterium acnes
Description: 2. Propionibacterium spp.—the principal propionibacterial strain used in these studies was Propionibacterium acnes NCTC 737. This is the type strain of the genus; it is fully susceptible to antibiotics.
as §2, §3, §4

[5] = system: S. aureus ATCC 29213; assay: MBC assay; type: cell-based, Staphylococcus aureus
Description: 1. Staphylococcus aureus—the principal staphylococcal test micro-organism used in these studies was Staphylococcus aureus ATCC 29213. This strain is the one recommended for QC/QA purposes in Minimum Inhibitory Concentration (MIC) assays by the US Clinical and Laboratory Standards Institute (formerly the NCCLS), an FDA-recognised body. […] The staphylococci and enterococci were cultured and maintained on Mueller-Hinton Medium (agar and broth) at pH 7.2; they were incubated aerobically at 37° C. for 24 hours. This assay, normally carried out after an MIC assay, determines the minimum concentration of a compound that is lethal to the micro-organism being tested. […] These samples were then individually sub-cultured on non-selective agar medium, under the incubation conditions described above. Following incubation they were examined visually for bacterial growth.

[6] = system: P. acnes NCTC 737; assay: Synergy disc diffusion assay (SDDA); type: cell-based, Propionibacterium acnes; conditions: for SDDA area increase / SDDA increase: quinone + BP; for SDDA area increase: over larger single-compound zone; for SDDA increase: over larger single-compound zone diameter; for SDDA with BP: quinone combined with BP on one disc, 200 μg of each
Description: 2. Propionibacterium spp.—the principal propionibacterial strain used in these studies was Propionibacterium acnes NCTC 737.
as §2
This is a variation on the DDA method, in which two compounds are tested together for their combined antimicrobial activity. It provides a qualitative indication as to whether the compounds are likely to interact synergistically.
Two test compounds A and B were placed on a single paper disc and the above described DDA procedure repeated.
Each of the quinones was then subjected, in combination with BP, to the SDDA assay described above.
For all (S)DDA assays, 200 μg of each compound was loaded onto each disc.

[7] = system: S. aureus ATCC 29213; assay: Synergy disc diffusion assay (SDDA); type: cell-based, Staphylococcus aureus; conditions: for SDDA area increase / SDDA increase: quinone + BP; for SDDA area increase: over larger single-compound zone; for SDDA increase: over larger single-compound zone diameter; for SDDA with BP: quinone combined with BP on one disc, 200 μg of each (thymoquinone 50 μg)
Excerpt: 1. Staphylococcus aureus—the principal staphylococcal test micro-organism used in these studies was Staphylococcus aureus ATCC 29213. This strain is the one recommended for QC/QA purposes in Minimum Inhibitory Concentration (MIC) assays by the US Clinical and Laboratory Standards Institute (formerly the NCCLS), an FDA-recognised body. S. aureus ATCC 29213 is susceptible to beta-lactam antibiotics such as methicillin and to many other antibiotics in clinical use worldwide today. The staphylococci and enterococci were cultured and maintained on Mueller-Hinton Medium (agar and broth) at pH 7.2; they were incubated aerobically at 37° C. for 24 hours. This is a variation on the DDA method, in which two compounds are tested together for their combined antimicrobial activity. It provides a qualitative indication as to whether the compounds are likely to interact synergistically. Two test compounds A and B were placed on a single paper disc and the above described DDA procedure repeated. An increase in diameter of the zone of inhibition, compared to the greater of the zone diameters for the two compounds individually, was taken to indicate potential antimicrobial synergy. […] The larger the increase in zone size, the greater the likelihood of a synergistic interaction between the two test compounds. Each of the quinones was then subjected, in combination with BP, to the SDDA assay described above. In each case, increases in zone diameter (mm) and area (%) were measured with respect to those observed for the compound showing the larger zone diameters during the previous disc diffusion assays on the individual compounds. […] The exceptions were the thymoquinone assays, in which only 50 μg of the benzoquinone was used.

[8] = S. aureus ATCC 29213, Table 5 (Example 5)
[9] = Staphylococcus aureus, ATCC29213, S. aureus ATCC 29213, Table 1 (Example 1), read-out: MIC
[10] = Cutibacterium acnes, NCTC737, P. acnes NCTC 737 (resistance None), Table 9 (Example 8)
[11] = Cutibacterium acnes, NCTC737, P. acnes NCTC 737, Table 7 (Example 6)
[12] = Staphylococcus aureus, ATCC29213, S. aureus ATCC 29213, Table 1 (Example 1), read-out: MBC
[13] = S. aureus ATCC 29213, Table 1 (Example 1)
[14] = P. acnes NCTC 737, Table 7 (Example 6)
[15] = Cutibacterium acnes, NCTC737, P. acnes NCTC 737, Table 7 (Example 6), read-out: MBC

SMILES	MIC [3, 13]	SDDA area increase [6]	SDDA increase [6]	SDDA with BP [6]	MBC [4, 14]	MBC [5, 13]	SDDA area increase [7]	SDDA increase [7]	SDDA with BP [7]	other results
O=C(OOC(=O)c1ccccc1)c1ccccc1 [benzoyl peroxide]	–	–	–	–	–	–	–	–	–	MBC [1]: 31.2 µg/mL (≈ 129 µM); MBC [2]: 62.5 µg/mL (≈ 258 µM); MIC [3, 8]: 250 µg/mL (≈ 1030 µM); MIC [3, 9]: 250 µg/mL (≈ 1030 µM); MBC [4, 10]: 31.2 µg/mL (≈ 129 µM); MBC [4, 11]: 62.5 µg/mL (≈ 258 µM); MBC [5, 8]: 250 µg/mL (≈ 1030 µM); MBC [5, 12]: 250 µg/mL (≈ 1030 µM)
Oc1ccc(O)cc1 [p-hydroquinone]	62.5 µg/mL (≈ 568 µM)	87.01%	8.91 mm	33.16 mm	>250 µg/mL	62.5 µg/mL (≈ 568 µM)	210.15%	14.42 mm	33.36 mm	–
Cc1c(O)ccc(O)c1C [2,3-dimethyl-p-hydroquinone]	7.8 µg/mL (≈ 56.5 µM)	113.68%	10.63 mm	33.65 mm	15.6 µg/mL (≈ 113 µM)	7.8 µg/mL (≈ 56.5 µM)	52.39%	7.83 mm	41.25 mm	–
CC(C)(C)c1cc(O)ccc1O [TBHQ, t-butyl hydroquinone]	–	211.51%	18.55 mm	42.80 mm	–	–	169.30%	26.77 mm	68.54 mm	MBC [1]: 15.6 µg/mL (≈ 93.9 µM); MBC [2]: 7.8 µg/mL (≈ 46.9 µM); MIC [3, 8]: 7.8 µg/mL (≈ 46.9 µM); MIC ([3]; Staphylococcus aureus, ATCC29213): 7.8 µg/mL (≈ 46.9 µM); MBC [4, 10]: 15.6 µg/mL (≈ 93.9 µM); MBC [4, 11]: 15.6 µg/mL (≈ 93.9 µM); MBC ([5]; Staphylococcus aureus, ATCC29213, S. aureus ATCC 29213, Table 5 (Example 5)): 15.6 µg/mL (≈ 93.9 µM); MBC ([5]; Staphylococcus aureus, ATCC29213, S. aureus ATCC 29213, Table 1 (Example 1)): 7.8 µg/mL (≈ 46.9 µM)
O=C1C=CC(=O)C=C1 [p-benzoquinone]	–	77.78%	8.29 mm	33.16 mm	–	–	37.25%	5.03 mm	34.38 mm	MBC [4, 15]: 62.5 µg/mL (≈ 578 µM)
CCc1cc(O)ccc1O [2-ethyl-p-hydroquinone]	7.8 µg/mL (≈ 56.5 µM)	84.28%	8.23 mm	31.25 mm	31.25 µg/mL (≈ 226 µM)	15.6 µg/mL (≈ 113 µM)	105.49%	9.13 mm	30.19 mm	–
CC1=CC(=O)C(C(C)C)=CC1=O [thymoquinone, 2-iso-propyl-5-methyl-p-benzoquinone]	–	79.46%	9.33 mm	36.79 mm	–	–	120.91%	7.60 mm	23.24 mm	MIC [3, 9]: 7.8 µg/mL (≈ 47.5 µM); MBC [4, 15]: 31.2 µg/mL (≈ 190 µM); MBC [5, 12]: 15.6 µg/mL (≈ 95 µM)
